Test results: patent US20090264415A2 (priority 2004, published 2009)

Tested on: peripheral blood mononuclear cells (PBMC) stimulated with allogeneic PBMC or EBV-transformed human B cells (RPMI1788)
Experiment: Mixed lymphocyte reaction (MLR) assay
Format: cell-based
Settings: Homo sapiens, RPMI-1788; 50% suppression of the MLR, [3H]-thymidine incorporation; read-out: MLR
Protocol: Pyrido[3,2-d]pyrimidine derivatives were first dissolved (10 mM) in dimethyl-sulfoxide (hereinafter referred as DMSO) and further diluted in culture medium before use for the following in vitro experiments. […] Some pyrido[3,2-d]pyrimidine derivatives described herein were tested in the following mixed lymphocyte reaction (MLR) assay.
Peripheral blood mononuclear cells (hereinafter referred as PBMC) were isolated from heparinized peripheral blood by density gradient centrifugation over Lymphoprep (Nycomed, Maorstua, Norway). Allogeneic PBMC or Eppstein-Barr Virus-transformed human B cells [commercially available under the trade name RPM11788 (ATCC name CCL156)] which strongly express B7-1 and B7-2 antigens were used as stimulator cells after irradiation with 30 Gy. MLR was performed in triplicate wells. After 5 days incubation at 37° C., 1 μCi [^3H]-thymidine was added to each cup. After a further 16 hours incubation, cells were harvested and counted in a β-counter. Inhibition of proliferation by a compound described in some of the present examples was counted while using the formula: [formula] wherein cpm is the thymidine count per minute. The MLR assay is regarded by those skilled in the art as an in vitro analogue of the transplant rejection since it is based on the recognition of allogeneic major histocompatibility antigens on the stimulator leukocytes, by responding lymphocytes.

**Q.** For `COc1ccc(-c2ccc3nc(N)nc(N4CCC(O)(c5ccc(Cl)cc5)CC4)c3n2)cc1OC` [Example 269, 2-amino-4-(4-chlorophenyl-4-hydroxypiperidin-1-yl)-6-(3,4-dimethoxyphenyl)-pyrido[3,2-d]pyrimidine], which IC50 is on record?
**A.** 3100 nM

Same assay, conditions: Homo sapiens, RPMI-1788; MLR assay of example 319; read-out: MLR IC50

**Q.** How did the IC50 turn out when `Cc1cccc(NC(=O)N2CCN(c3nc(CNC4CC4)nc4ccc(-c5ccc(F)cc5)nc34)CC2)c1` [Example 539, 2-(N-cyclopropylamino)methyl-4-[N-(3-methylphenylcarbamoyl)piperazin-1-yl]-6-(4-fluorophenyl)-pyrido[3,2-d]pyrimidine] was run?
**A.** 700 nM

**Q.** With `Cc1ccc(-c2ccc3nc(N)nc(N4CCN(C(=O)COc5ccc(Cl)cc5)CC4)c3n2)cc1N` [Example 507, 2-amino-4-[N-(4-chlorophenoxyacetyl)-piperazin-1-yl]-6-(3-amino-4-methylphenyl)-pyrido(3,2-d)pyrimidine] as the compound, how does the IC50 read?
**A.** 29 nM

**Q.** For `CC(Oc1ccccc1)C(=O)N1CCN(c2nc(N)nc3ccc(-c4ccc(F)cc4)nc23)CC1` (centres unmarked) [Example 474, 2-amino-4-[4-(2-phenoxypropionyl)piperazin-1-yl]-6-(4-fluorophenyl)-pyrido[3,2-d]pyrimidine], which IC50 is on record?
**A.** 1000 nM

**Q.** For `Cc1cccc(NC(=O)N2CCN(c3ncnc4ccc(-c5ccco5)nc34)CC2)c1` [Example 563, 4-[(3-methylphenylcarbamoyl)-piperazin-1-yl]-6-(2-furanyl)pyrido[3,2-d]pyrimidine], which IC50 is on record?
**A.** 36 nM

**Q.** For `Nc1nc(N2CCN(C(=O)COc3cccc(Cl)c3)CC2)c2nc(-c3ccc(F)cc3)ccc2n1` [Example 385, 2-amino-4-[4-(3-chlorophenoxyacetyl)piperazin-1-yl]-6-(4-fluorophenyl)-pyrido[3,2-d]pyrimidine], which IC50 is on record?
**A.** 90 nM

**Q.** Which IC50 does the source give for `Nc1nc(N2CCN(C(=O)Nc3ccc(Cl)cc3)CC2)c2nc(-c3ccc(F)cc3)ccc2n1` [Example 455, 2-amino-4-[4-[N-(4-chlorophenyl)carbamoyl]-piperazin-1-yl]-6-(4-fluorophenyl)-pyrido[3,2-d]pyrimidine] here?
**A.** 70 nM

**Q.** `Nc1nc(N2CCN(C(=O)OCc3ccccc3)CC2)c2nc(-c3ccc(F)cc3)ccc2n1` [Example 458, 2-amino-4-[4-(benzyloxycarbonyl)-piperazin-1-yl]-6-(4-fluorophenyl)-pyrido[3,2-d]pyrimidine] was tested. Which IC50 did it give?
**A.** 700 nM

**Q.** How did the IC50 turn out when `Nc1nc(N2CCN(C(=O)COc3ccc(Cl)cc3)CC2)c2nc(-c3ccc4[nH]ccc4c3)ccc2n1` [Example 412, 2-amino-4-[4-(4-chlorophenoxyacetyl)piperazin-1-yl]-6-(indol-5-yl)pyrido-[3,2-d]pyrimidine] was run?
**A.** 39 nM

**Q.** Which IC50 does the source give for `NCC(=O)N1CCN(c2nc(N)nc3ccc(-c4ccc(F)cc4)nc23)CC1` [Example 444, 2-amino-4-[4-(aminoacetyl)-piperazin-1-yl]-6-(4-fluorophenyl)-pyrido[3,2-d]pyrimidine] here?
**A.** 2300 nM

**Q.** With `Cc1csc(-c2ccc3nc(N)nc(N4CCN(C(=O)COc5ccc(Cl)cc5)CC4)c3n2)c1` [Example 511, 2-amino-4-[N-(4-chlorophenoxyacetyl)-piperazin-1-yl]-6-(4-methyl-2-thienyl)-pyrido(3,2-d)pyrimidine] as the compound, how does the IC50 read?
**A.** 54 nM

**Q.** Which IC50 does the source give for `Nc1nc(N2CCN(C(=O)COc3ccc(Cl)cc3)CC2)c2nc(-c3c(Cl)cccc3Cl)ccc2n1` [Example 438, 2-amino-4-[4-(4-chlorophenoxyacetyl)piperazin-1-yl]-6-(2,6-dichlorophenyl)-pyrido-[3,2-d]pyrimidine] here?
**A.** 700 nM

**Q.** Which IC50 does the source give for `Cc1cccc(NC(=O)N2CCN(c3nc(N)nc4ccc(-c5ccc(C(F)(F)F)cc5)nc34)CC2)c1` [Example 548, 2-amino-4-[(3-methylphenylcarbamoyl)-piperazin-1-yl]-6-(4-trifluoromethylphenyl)-pyrido[3,2-d]pyrimidine] here?
**A.** 170 nM

**Q.** With `COc1ccc(OC)c(-c2ccc3nc(N)nc(N4CCN(C(=O)COc5ccc(Cl)cc5)CC4)c3n2)c1` [Example 506, 2-amino-4-[N-(4-chlorophenoxyacetyl)-piperazin-1-yl]-6-(2,5-dimethoxyphenyl)-pyrido(3,2-d)pyrimidine] as the compound, how does the IC50 read?
**A.** 690 nM
